Assay: Particle size of milled tacrolimus particles by laser particle size analyzer (Malvern 3000)
Assay type: physicochemical
Settings: for D90 / D10 / D50 / D [3, 3] / D [4, 3]: Malvern 3000
Protocol: The milling process is conducted under the water bath at the temperature of about 4 to 18° C. for decreasing high-released energy in case of the deactivation of the milled particles.
Table 1 illustrates the statistically analyzed diameter size of the milled particles after different milling time, detected by laser particle size analyzer, Malven 3000. After milling for 90 mins, the D90 of the particles is decreased to a level of less than 400 nm. Furthermore, it was observed that preferred D90 of milled particles would be limited in the range of 100 nm to 800 nm. If D90 is less than 100 nm, the issue of particle aggregation cannot be prevented. If D90 is greater than 800 nm, the favorable effect is not significant.

Structure (SMILES): C=CC[C@@H]1/C=C(\C)C[C@H](C)C[C@H](OC)[C@H]2O[C@@](O)(C(=O)C(=O)N3CCCC[C@H]3C(=O)O[C@H](/C(C)=C/[C@@H]3CC[C@@H](O)[C@H](OC)C3)[C@H](C)[C@@H](O)CC1=O)[C@H](C)C[C@@H]2OC [tacrolimus]
- D90 of the particles (after milling for 90 mins): less than 400 nm
- D90 (milling time 0 min (unmilled)): 17.000 μm
- D10 (milling time 0 min): 2.300 μm
- D50 (milling time 0 min): 6.600 μm
- D [3, 3] (milling time 0 min): 4.860 μm
- D [4, 3] (milling time 0 min): 8.880 μm
- D10 (milling time 15 min): 0.157 μm
- D50 (milling time 15 min): 0.338 μm
- D90 (milling time 15 min): 0.967 μm
- D [3, 3] (milling time 15 min): 0.294 μm
- D [4, 3] (milling time 15 min): 0.578 μm
- D10 (milling time 30 min): 0.119 μm
- D50 (milling time 30 min): 0.255 μm
- D90 (milling time 30 min): 0.572 μm
- D [3, 3] (milling time 30 min): 0.219 μm
- D [4, 3] (milling time 30 min): 0.328 μm
- D10 (milling time 45 min): 0.123 μm
- D50 (milling time 45 min): 0.270 μm
- D90 (milling time 45 min): 0.608 μm
- D [3, 3] (milling time 45 min): 0.230 μm
- D [4, 3] (milling time 45 min): 1.360 μm
- D10 (milling time 60 min): 0.094 μm
- D50 (milling time 60 min): 0.198 μm
- D90 (milling time 60 min): 0.426 μm
- D [3, 3] (milling time 60 min): 0.170 μm
- D [4, 3] (milling time 60 min): 0.232 μm
- D10 (milling time 75 min): 0.088 μm
- D50 (milling time 75 min): 0.183 μm
- D90 (milling time 75 min): 0.390 μm
- D [3, 3] (milling time 75 min): 0.158 μm
- D [4, 3] (milling time 75 min): 0.216 μm
- D10 (milling time 90 min): 0.083 μm
- D50 (milling time 90 min): 0.174 μm
- D90 (milling time 90 min): 0.364 μm
- D [3, 3] (milling time 90 min): 0.149 μm
- D [4, 3] (milling time 90 min): 0.202 μm

Reference: patent publication US11752104B2, “Oral composition and methods for manufacturing the same and treatment” (MEDICAL AND PHARMACEUTICAL INDUSTRY TECHNOLOGY AND …, priority 2019, dated 2023)
